Biological target: T1, cannabinoid receptor 2 (CB2R) (Homo sapiens, UniProt P34972)
T1 construct: gene CNR2
Test: radioligand binding assay, [3H]CP […] displacement

T1 sequence (P34972 whole entry): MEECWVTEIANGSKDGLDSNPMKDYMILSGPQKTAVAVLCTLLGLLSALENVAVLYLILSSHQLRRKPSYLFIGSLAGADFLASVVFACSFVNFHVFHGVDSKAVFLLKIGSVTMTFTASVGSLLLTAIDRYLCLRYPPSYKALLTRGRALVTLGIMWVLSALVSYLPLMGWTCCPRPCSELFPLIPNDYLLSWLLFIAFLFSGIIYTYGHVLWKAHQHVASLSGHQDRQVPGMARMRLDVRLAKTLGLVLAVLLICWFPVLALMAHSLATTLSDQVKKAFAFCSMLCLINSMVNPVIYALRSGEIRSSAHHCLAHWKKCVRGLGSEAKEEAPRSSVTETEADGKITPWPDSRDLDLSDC

Work on `CCOC(=O)C1=CC(c2cccc(C)c2)C2CCC(CC(=O)c3ccccc3)OC2N1S(=O)(=O)c1ccc(C)cc1` (stereo not shown) [YX-2102] yielded a Ki of 350 nM.

Source: paper PMC9724349, “Discovery of a pyrano[2,3-b]pyridine derivative YX-2102 as a cannabinoid receptor 2 agonist for alleviating lung fibrosis” (Journal of Translational Medicine, 2022)
